Experimental data taken from paper PMC8094907 (The Journal of Biological Chemistry, 2021).

B1: 7620 (Trypanosoma brucei brucei TREU927) (protein)
chain: MTSINAQPPNSATYPQDDHGSAEVVNLNAEVERPQPEEQKDGGGCFARVSLFMATIIPPGGIAASAFNIGSTTVGAGIFGLPAAANSSGLVMAMIYLIIITAMTIFSIYALGVAAERTNIRTYEGVARALLGPWGAYYTAATRAFFSFSACVAYVISVGDILSATLKGTNAPDFLKQKSGNRLLTSLMWLCFMLPLVIPRHIDSLRHVSTIAFILMIYMVLVVVVHSCMNGLPENIKNVSVGKDDNAEIILFNSGNRAIEGLGVFIFSYLFQITAYEVYMDMTNRSVGKFVLVVTIAMGMCLPMYALTAFFGYMDFGRNVTGSVLLQYDPVNYPAVMVGFVGVLVMLFVSYALLGLACRNALYDVIGWDFREVAFWKHCIAVVTLSIVMLLCGLFIPKITTVLGFAGSFCGGSLGFILPALFFMYSGGFTWQKVGPFYYISTYVLLITGVIAAVFGTGATIWAVTVG

Assays:
[1] = target: T1, 7620 (Trypanosoma brucei, UniProt Q57V83); format: cell-based; settings: pH 7.0, 30 °C, excess competitor
T1 construct: gene Tb08.30P3.140; full-length ORF, untagged, in pDR197; expressed in S. cerevisiae 22574d

[2] = substrate: O=C(O)[C@@H]1CCCN1; test: cells, lysate or membranes; settings: pH 7.0, 30 °C, 100 mM glucose, labelled compound

Molecule	relative uptake rate (%) [1]	Km [2]
C[C@H](N)C(=O)O [alanine]	proline being the best substrate, followed by alanine and cysteine	
N[C@@H](CS)C(=O)O [cysteine]	proline being the best substrate, followed by alanine and cysteine	
B1		600 µM
